From PubChem BioAssay AID2060357 (Molecular Pharmacology Branch, DTP, NCI, 2025) come the findings set out here.

One may read the IC50 as the concentration needed to halve the response being measured. As a reminder, the viability, T/C is the result in the treated group divided by that in the control group, in per cent.

The structures appear in SMILES notation. Several values for one entry are separate records, joined by “and”; a condition that tells them apart may be missing. Equal values may be shown once. A value given as a limit tells only on which side of the number the result lay.

The subject of the test is 292921-168-R-J2-PDC spheroids with HUVEC/MSC, viability. Nature of the test: Anticancer human tumor 292921-168-R-J2-PDC patient-derived pancreatic carcinoma cell line growth inhibition [TAK]. The note with it: for viability, T/C: stronger effect = lower value. From the text: Combinatorial screen of targeted agents with TAK-243 and ipatasertib in multi-cell type tumor spheroids
A high-throughput screen of multi-cell type tumor spheroids was designed to identify active combinations of targeted small molecules and TAK-243 or ipatasertib. Complex spheroids include a stromal component modeled by human endothelial cells (HUVEC) and fibroblasts modeled by human mesenchymal stem cells (MSCs). The concentration ranges selected for each drug and investigational agent were based upon clinically achievable concentrations if the clinical Cmax of the agent was known.
Compounds. The drugs and investigational agents: TAK-243 (785004), ipatasertib (767898), everolimus (733504), selumetinib (741078), bortezomib (756655), trametinib (758246), ixazomib (758254), vemurafenib (761431), dabrafenib (764134), sapanisertib (764658), alpelisib (765974), and copanlisib (816437), were obtained from the National Cancer Institute (NCI) Developmental Therapeutics Program Chemical Repository. The FDA-approved anticancer drug set is available from the NCI Developmental Therapeutics Program. […] The stock solutions were prepared in dimethyl sulfoxide (DMSO, Sigma-Aldrich, St. Louis, MO, cat. D2650) at 800-fold the tested concentration and stored at -70 degrees C prior to their use. All drugs and investigational agents were tested over a range starting from a high concentration at or near the clinical Cmax and decreasing in half-log increments. If the clinical Cmax for an agent had not been determined, the highest concentration tested was 10 microM.
NCI60 Cell Culture. NCI60 cell lines were obtained from the NCI Developmental Therapeutics Program Tumor Repository. For each lot of cells, the Repository performed Applied Biosystems AmpFLSTR Identifiler testing with PCR amplification to confirm consistency with the published Identifier STR profile for each cell line. Cells were kept in continuous culture for no more than 20 passages. The optimal seeding densities for each of the cell lines at each time point assessed were determined prior to performing the concentration response studies. Briefly, the NCI60 human tumor lines were grown as monolayers in RPMI 1640 medium supplemented with 10% FBS and 2 mmol/L L-glutamine.
An additional 2 lines were from the NCI60 cell line panel including melanomas, MALME-3M and SK-MEL-2. Pooled donor human umbilical vein endothelial cells (HUVEC, Lonza, cat. CC-2519) and human mesenchymal stem cells (hMSC, Lonza, cat. PT-2501) were purchased from Lonza (Walkersville, MD).
PDMR cell lines were grown in complete medium (DC medium): Dulbecco's modified Eagle's medium (DMEM)/F12 supplemented with 5% fetal bovine serum (FBS), 2 mM L-glutamine, 100 U/mL penicillin and 100 µg/ml streptomycin, 0.4 µg/ml hydrocortisone, 10 ng/ml epidermal growth factor (EGF) recombinant human protein, 24 µg/mL adenine, and 0.1 mg/mL primocin. During culture from frozen stock vials, PDMR cells were cultured in the same medium containing 10 µM Y-27632 (see Table 3). The PDCs were cultured in complete DMEM/F12 media without 10 microM Y-27632 dihydrochloride for at least two passages prior to the screen. The pooled donor HUVEC and hMSC were cultured in endothelial cell growth medium 2 (PromoCell, Heidelberg, Germany, cat. C-22011) and mesenchymal stem cell growth medium 2 (PromoCell, cat. C-28009), respectively. For all experiments, HUVEC and hMSC were used at passages </=5.
For the pre-screen, cell seeding densities were determined from a titration spanning the range from 5,000 to 313 cells per well. The mct-spheroids including 60% malignant cells, 25% HUVEC and 15% MSC dispensed as a mixture into U-bottom Ultra-Low Attachment 384-well plates (Corning, NY)
High-throughput Drug Combination Screening.
Prior to their inoculation into 384-well plates, malignant cells, HUVEC, and hMSC were removed from T flasks using TrypLE express (Thermo Fisher Scientific, cat. 12605036) and harvested by centrifugation for 5 min at 233 x g. […]

The mark [1] stands for this setting: curve of first compound, second compound 0.3 µM.
Setting [2] is: curve of first compound, second compound 0.949 µM.
Where [3] appears, read: curve of first compound, second compound 3 µM.
Where [4] appears, read: curve of first compound, second compound 9.49 µM.
Where [5] appears, read: curve of first compound, second compound 30 µM.
[6] abbreviates: second compound 0.3 µM, first compound 0.0316 µM.
Setting [7] is: second compound 0.3 µM, first compound 0.1 µM.
Setting [8] is: second compound 0.3 µM, first compound 0.316 µM.
Where [9] appears, read: second compound 0.3 µM, first compound 1 µM.
The mark [10] stands for this setting: second compound 0.3 µM, first compound 3.16 µM.
The mark [11] stands for this setting: second compound 0.3 µM, first compound 10 µM.
[12] abbreviates: second compound 0.949 µM, first compound 0.0316 µM.
The mark [13] stands for this setting: second compound 0.949 µM, first compound 0.1 µM.
Setting [14] is: second compound 0.949 µM, first compound 0.316 µM.
Setting [15] is: second compound 0.949 µM, first compound 1 µM.
[16] abbreviates: second compound 0.949 µM, first compound 3.16 µM.
The mark [17] stands for this setting: second compound 0.949 µM, first compound 10 µM.
Where [18] appears, read: second compound 3 µM, first compound 0.0316 µM.
[19] abbreviates: second compound 3 µM, first compound 0.1 µM.
Setting [20] is: second compound 3 µM, first compound 0.316 µM.
The mark [21] stands for this setting: second compound 3 µM, first compound 1 µM.
[22] abbreviates: second compound 3 µM, first compound 3.16 µM.
The mark [23] stands for this setting: second compound 3 µM, first compound 10 µM.
The mark [24] stands for this setting: second compound 9.49 µM, first compound 0.0316 µM.
Where [25] appears, read: second compound 9.49 µM, first compound 0.1 µM.
Where [26] appears, read: second compound 9.49 µM, first compound 0.316 µM.
Setting [27] is: second compound 9.49 µM, first compound 1 µM.
Setting [28] is: second compound 9.49 µM, first compound 3.16 µM.
The mark [29] stands for this setting: second compound 9.49 µM, first compound 10 µM.
The mark [30] stands for this setting: second compound 30 µM, first compound 0.0316 µM.
Where [31] appears, read: second compound 30 µM, first compound 0.1 µM.
[32] abbreviates: second compound 30 µM, first compound 0.316 µM.
The mark [33] stands for this setting: second compound 30 µM, first compound 1 µM.
Where [34] appears, read: second compound 30 µM, first compound 3.16 µM.
Setting [35] is: second compound 30 µM, first compound 10 µM.
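Note: spheroids exposed to drugs for seven days before readout.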

Take `Cc1nc(NC(=O)N2CCCC2C(N)=O)sc1-c1ccnc(C(C)(C)C(F)(F)F)c1` (centres undefined) + CC(C)NCC(C(=O)N1CCN(c2ncnc3c2C(C)CC3O)CC1)c1ccc(Cl)cc1: the IC50 runs as follows: under setting [1], 295 nM; under setting [2], 185 nM; under setting [3], 184 nM; under setting [4], 70.8 nM; under setting [5], less than 31.6 nM. Also, the viability, T/C under setting [6] was 75.5%; the viability, T/C under setting [7] was 67.2%; the viability, T/C under setting [8] was 47.2%; the viability, T/C under setting [9] was 34.2%; the viability, T/C under setting [10] was 26.2%; the viability, T/C under setting [11] is 20%. Moreover, the viability, T/C reads like this: under setting [12], 78.5%; under setting [13], 58.4%; under setting [14], 42.8%; under setting [15], 30.5%; under setting [16], 24.1%; under setting [17], 19.6%. Moreover, the viability, T/C was 68.5% under setting [18]; 61.7% under setting [19]; 39.3% under setting [20]; 27.1% under setting [21]; 23.4% under setting [22]; 15.3% under setting [23]. Also, the viability, T/C was 59.8% under setting [24]; 46.8% under setting [25]; 27.8% under setting [26]; 21.1% under setting [27]; 17.8% under setting [28]; 12.7% under setting [29]. Besides, the viability, T/C is, setting by setting: under setting [30], 41.1%; under setting [31], 33.2%; under setting [32], 23.9%; under setting [33], 16.4%; under setting [34], 13.4%; under setting [35], 9.1%.

Take `CC(C)CC(NC(=O)C(Cc1ccccc1)NC(=O)c1cnccn1)B(O)O` (centres undefined): the viability, T/C by setting is: (compound 31.6 pM) 99.4% and 103%; (compound 0.0001 µM) 102%; (compound 0.000316 µM) 104% and 107%; (compound 0.001 µM) 96.7% and 104%; (compound 0.00316 µM) 88.3% and 74.9%; (compound 0.01 µM) 7.89% and 7.64%. The IC50 (curve of compound) was 5.46 nM and 4.85 nM.

Regarding `CC(C)(C)c1nc(-c2cccc(NS(=O)(=O)c3c(F)cccc3F)c2F)c(-c2ccnc(N)n2)s1` + CC(C)NCC(C(=O)N1CCN(c2ncnc3c2C(C)CC3O)CC1)c1ccc(Cl)cc1, the IC50 is 2270 nM under setting [1]; 1800 nM under setting [2]; 1250 nM under setting [3]; 682 nM under setting [4]; less than 31.6 nM under setting [5]. In addition, the viability, T/C runs as follows: under setting [6], 94.8%; under setting [7], 94.7%; under setting [8], 88.7%; under setting [9], 74.2%; under setting [10], 40.1%; under setting [11], 20.5%. In addition, the viability, T/C reads like this: under setting [12], 85.2%; under setting [13], 92%; under setting [14], 80.5%; under setting [15], 66.9%; under setting [16], 34.2%; under setting [17], 17.9%. Also, the viability, T/C reads like this: under setting [18], 83.4%; under setting [19], 85.9%; under setting [20], 77.4%; under setting [21], 55.2%; under setting [22], 27.5%; under setting [23], 15.8%. The viability, T/C by setting is: under setting [24], 72.5%; under setting [25], 70.8%; under setting [26], 64.7%; under setting [27], 42.5%; under setting [28], 22.7%; under setting [29], 15.2%. Also, the viability, T/C runs as follows: under setting [30], 46.5%; under setting [31], 49.8%; under setting [32], 44.1%; under setting [33], 35.6%; under setting [34], 19.8%; under setting [35], 14.1%.

In the case of `CCCS(=O)(=O)Nc1ccc(F)c(C(=O)c2c[nH]c3ncc(-c4ccc(Cl)cc4)cc23)c1F`, the viability, T/C by setting is: (compound 0.316 µM) 113% and 128%; (compound 1 µM) 117% and 127%; (compound 3.16 µM) 108% and 113%; (compound 10 µM) 55.1% and 67.5%; (compound 31.6 µM) 99.6% and 62.3%; (compound 100 µM) 80% and 94.5%. The IC50 (curve of compound) was greater than 100000 nM.
